In patent US5464818A (priority 1993, dated 1995):
Like-named read-outs stand apart in the source and are kept apart here. *1 amine or outer side, *2 acyl side, *3 side chain or, on linkers, in order; H or OH if unused. Where a SMILES comes first, the peptide text is derived from it. [ ]: non-standard residue; d: D form. The star is where a group is joined. Sta = CC(C)C[C@H](N)[C@@H](O)CC(=O)O; AMC = Cc1cc(=O)oc2cc(N*)ccc12; Suc = O=C(CCC(=O)[*:2])[*:1]; Isovaleryl = CC(C)CC(=O)*

Columns and labels:
[1] = test system: Clostridium perfringens FERM BP-4584 (7544S) cell growth-stimulating protein having proteinase activity (MW about 420,000); assay type: biochemical
[2] = test system: Clostridium perfringens FERM BP-4584 (7544S) cell growth-stimulating protein having proteinase activity (MW about 420,000); assay type: biochemical; remark: listed apart in the source
[3] = inhibitor conc. 0.01 mM, substrate Suc-Ala-Ala-Pro-Phe-MCA
[4] = inhibitor conc. 1.0 mM, substrate Suc-Ala-Ala-Pro-Phe-MCA

Compound: CC(C)C[C@H](NC(=O)N[C@H](C(=O)N[C@@H](CCC(N)=O)C(=O)N[C@@H](C)C=O)[C@@H]1CCNC(=N)N1)C(=O)O [Elastatinal]
- Residual activity [1, 3]: 98%

Compound: O=C(O)CN(CCN(CC(=O)O)CC(=O)O)CC(=O)O [Ethylenediamine tetraacetic acid]
- Residual activity [1, 4]: 34%

Compound: O=C(O)CI [Iodoacetic acid]
- Residual activity ([1]; inhibitor conc. 0.1 mM, substrate Suc-Ala-Ala-Pro-Phe-MCA): 100%

Compound: CC(C)CC(=O)N[C@H](C(=O)N[C@H](C(=O)N[C@@H](CC(C)C)[C@@H](O)CC(=O)N[C@@H](C)C(=O)N[C@@H](CC(C)C)[C@@H](O)CC(=O)O)C(C)C)C(C)C [Pepstatin A] (Isovaleryl-VV[Sta]A[Sta]-OH)
- Residual activity [1, 3]: 103%

Compound: Cc1cc(=O)oc2cc(NC(=O)[C@H](Cc3ccccc3)NC(=O)[C@@H]3CCCN3C(=O)[C@H](C)NC(=O)[C@H](C)NC(=O)CCC(=O)O)ccc12 [Suc--Ala--Ala--Pro--Phe--MCA, succinyl-alanyl-alanyl-prolyl-phenylalanine-4-methyl-coumaryl-7-amide] (Suc-AAPF-{AMC})
- Km [2]: 4.2 mM
- Vmax ([2]; substrate Suc-Ala-Ala-Pro-Phe-MCA, optimum pH 6.2-7.0): 230 μ mol/min/mg

Compound: c1cnc2c(c1)ccc1cccnc12 [o-Phenanthroline]
- Residual activity [1, 4]: 85%

Compound: Chymostatin
- Residual activity [1, 3]: 62%

Compound: Toluene sulfonylfluoride
- Residual activity [1]: 1%
